From PubChem BioAssay (NCI) come the findings set out here.

Values joined by “and” are separate entries in the source; they are usually repeats but may differ in a detail not shown here. Equal entries are not always repeated.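 Where inhibition never reached the appropriate level, the endpoint shown equals the highest concentration tested. Otherwise, values were interpolated linearly from a five-concentration, 48-hour dose response in 96-well plates. Abbreviation: GI50, concentration required for 50% inhibition of growth. TGI is the concentration that stops growth completely.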

This experiment relates to MDA-MB-468 breast. The experiment is described as follows: inhibition of tumour cell growth, NCI panel, 48 h.
With `Cn1cc(-c2ccc3c(Nc4cccc(NC(=O)Nc5cccc(F)c5)c4)ncnc3c2)cn1`, the GI50 is 0.107 µM and the TGI was 1.64 µM.

For the compound `Clc1ccc(CSC(Cn2ccnc2)c2ccc(Cl)cc2Cl)cc1` (configuration not stated), the GI50 was 1.39 µM and the TGI was determined as 3.37 µM.

With `CCNC(=O)[C@@H]1CCCN2C(=O)CC[C@H](NC(=O)[C@H](Cc3ccc(OP(=O)(O)O)cc3)NC(C)=O)C(=O)N12`, the GI50 was more than 25 µM and the TGI is more than 25 µM.

On to `N#Cc1cnc2ccc(-c3cnc(N)nc3)cc2c1N1CCc2cc(F)c(Cl)cc21`, for which the GI50 was 0.38 µM and the TGI was 2.04 µM.

Consider `CN(C)CCOc1ccc(-c2nc(-c3ccc4c(c3)CC/C4=N\O)c(-c3ccncc3)[nH]2)cc1`, for which the GI50 is 3.63 µM and 2.74 µM; the TGI was 7.37 µM and 24.4 µM.

For `CC(C)[C@]12O[C@H]1[C@@H]1O[C@]13[C@]1(O[C@H]1C[C@H]1C4=C(CC[C@@]13C)C(=O)OC4)[C@@H]2O`, the GI50 is 0.0176 µM and the TGI was 0.0385 µM.

On to `Nc1c(C(=O)c2cccc(CCCN3CCOCC3)c2)cnn1-c1ccc(F)cc1`, for which the GI50 is more than 20.1 µM and the TGI was more than 25 µM.

`COc1cc2c(cc1O)CC[C@@H]1[C@@H]2CC[C@]2(C)[C@@H](NCCN(C)C)CC[C@@H]12`: the GI50 is 0.126 µM and the TGI came to 0.499 µM.

`COc1ccc(C2CC(c3cc(OC)c(OC)c(OC)c3)=NO2)cc1OCCCCOc1cc2c(cc1OC)C(=O)N1CCC[C@H]1C=N2` (some centres not stated): the GI50 was 1.34 µM and the TGI is 2.97 µM.

In the case of `COC(=O)CCC(=O)C(=O)OC`, the GI50 is 90800 µM and the TGI was more than 100000 µM.

Turning to `N#Cc1c(-c2ccccc2)nc(SCC2CO2)nc1N1CCOCC1` (configuration not stated), the GI50 is 4.15 µM and the TGI is more than 68.4 µM.

For the compound `CC(=O)N[C@@H](Cc1ccc(OP(=O)(O)O)cc1)C(=O)N[C@H]1CCC(=O)N2CCC[C@@H](C(=O)NCc3ccc(Cl)cc3)N2C1=O`, the GI50 was more than 25 µM and the TGI is more than 25 µM.

In the case of `CC1(C)N=C(N)N=C(N)N1c1cccc(CCCCc2cccc(S(=O)(=O)F)c2)c1`, the GI50 was 0.748 µM and the TGI was 26.4 µM.

Regarding `COc1ccc2[nH]c(=O)c3c4ccccc4cn3c2c1`, the GI50 was 0.179 µM and the TGI stood at 1.36 µM.

Consider `CCN(CC)CCOCC[C@H]1CC[C@H]2[C@@H]3[C@H](C)Cc4cc(OS(N)(=O)=O)ccc4[C@H]3CC[C@]12C`, for which the GI50 was 0.259 µM and the TGI was found to be 1.36 µM.

In the case of `Cc1cccc(NC(=O)CCc2ccc(N3C(N)=NC(N)=NC3(C)C)cc2)c1`, the GI50 is 0.692 µM and the TGI was more than 51.4 µM.

As to `Cc1ccc2c(c1)C(C)Cc1c(ncnc1-n1cnc3ccccc31)N2C` (configuration not stated), the GI50 is 0.262 µM and the TGI was 23.2 µM.

With `OC(c1cccc(-n2ccc(C(F)(F)F)n2)c1)c1cnccc1NC1CCCCCC1` (configuration not stated), the GI50 is 1.64 µM and the TGI amounted to 3.28 µM.

As to `COc1cc(NS(C)(=O)=O)ccc1Nc1c2ccc([N+](=O)[O-])cc2nc2c(C)cccc12`, the GI50 is 0.246 µM and the TGI was 0.873 µM.

Regarding `FC(F)(F)Oc1cccc(-c2cnc3ccc(-c4ccncc4)nn23)c1`, the GI50 is 0.59 µM and the TGI was found to be 3.77 µM.

As to `CCN1CCN(Cc2ccc(-c3cc4c(N[C@H](C)c5ccccc5)ncnc4[nH]3)cc2)CC1`, the GI50 was 0.0202 µM and 0.0419 µM; the TGI is 0.286 µM and 0.481 µM.

In the case of `Cc1ccc([N+](=O)[O-])cc1NC(=O)Nc1cccc(F)c1`, the GI50 is 3.6 µM and the TGI was 24.7 µM.

For `COc1cc(C(=O)/C=C/c2c(C)n([O-])c3ccc(C)cc3[n+]2=O)cc(OC)c1OC`, the GI50 was 2.59 µM and the TGI was 9.94 µM.

Consider `CCS(=O)(=O)N1CCC(C(C)n2c(C)c(C(=O)NCc3c(OC)cc(C)[nH]c3=O)c3ccccc32)CC1` (configuration not stated), for which the GI50 is 92 µM and the TGI is more than 100 µM.

Regarding `C=CC[n+]1c(/C=C/C=C2\N(C)c3ccccc3C2(C)C)sc2ccc(OC)cc21`, the GI50 is 0.0297 µM and the TGI came to 1.05 µM.

Turning to `O=C(NNc1nc2cc(F)ccc2n2c(CN3CCCC3)ccc12)c1cnccn1`, the GI50 was 1.6 µM and the TGI was determined as 6.9 µM.

In the case of `COc1ccc2oc(=O)cc(C(c3ccc[nH]3)c3ccc[nH]3)c2c1`, the GI50 was 0.344 µM and the TGI turned out to be 3.34 µM.

As for `Nc1ccc2c(c1)C(=O)C(=O)c1c-2nc2ccccn12`, the GI50 was 1.53 µM and the TGI turned out to be 3.11 µM.

Take `CCSCC1CC(O)(c2ccccc2)C(c2ccccc2)C(c2ccc(Cl)cc2)O1` (configuration not stated): the GI50 is 1.7 µM and the TGI worked out at 3.55 µM.

Consider `C=C1C(=O)O[C@H]2[C@H]1CC/C(CNC(=O)Cc1c[nH]c3ccccc13)=C\CC[C@@]1(C)O[C@@H]21`, for which the GI50 is 0.795 µM and the TGI came out at 2.73 µM.

As to `COc1ccc(CC(C)=C(c2ccc(OCCN3CCCC3)cc2)c2ccc(OCCN3CCCC3)cc2)cc1`, the GI50 is 0.777 µM and the TGI was found to be 3.1 µM.

With `C[C@@H]1COCCN1c1cc(C2([S@](C)(=N)=O)CC2)nc(-c2ccnc3[nH]ccc23)n1`, the GI50 is 3.12 µM and 4.14 µM; the TGI is 27.2 µM and > 10 µM.

For `Nc1cc(-c2c[nH]c3ccc(F)cc23)nc2cc(-c3c[nH]c4ccc(F)cc34)nn12`, the GI50 is 2.01 µM and the TGI came out at 3.84 µM.

On to `O=C(NC1CCN(Cc2ccccc2)CC1)c1cc(-c2ccncc2)nc2ccc(Cl)cc12`, for which the GI50 is 6.82 µM and the TGI amounted to 37 µM.

`F`: the GI50 is 4500 µM and the TGI was more than 6870 µM.

On to `CC12CCC3C(CCC4Cc5[nH]c6ccccc6c5CC43C)C1CCC2O` (configuration not stated), for which the GI50 is 2.78 µM and the TGI was more than 100 µM.
